# Laboratory results taken from article PMC4822888, “Subtype-Selective Small Molecule Inhibitors Reveal a Fundamental Role for Nav1.7 in Nociceptor Electrogenesis, Axonal Conduction and Presynaptic Release” (PLoS ONE, 2016).
# Like-named read-outs stand apart in the source and are kept apart here.
# What was measured:
# [1] = system: substantia gelatinosa (SG) neurons of the superficial dorsal horn
# [2] = system: small diameter mouse DRG neurons; type: cell-based
# [3] = system: WT mice; test: Capsaicin flare response in WT mice; type: in vivo, mouse; conditions: 55 mins, vehicle 4930 ± 751
# [4] = system: small diameter mouse DRG neurons; test: Current clamp of action potentials in small diameter mDRG neurons; type: cell-based
# Description: Dorsal root ganglia (DRG) were isolated and dissociated according to a previously published method. Briefly, DRGs were obtained from all spinal locations and dissociated neurons plated on glass coverslips pre-coated with poly-D-lysine/laminin (BD Biosciences) and left to adhere for 1.5–2 hrs before flooding. Growth media consisted of Lebovitz L-15 Glutamax (Life Technologies) supplemented with 10% FCS, 24 mM NaHCO3 and 38 mM glucose.
# Electrophysiological recordings were obtained from stably transfected HEK 293 cells, acutely dissociated mouse DRG neurons, cultured human DRG neurons or mouse superficial dorsal horn neurons using either an Axopatch 200B or […] amplifier (Molecular Devices), or EPC-10 USB amplifier (HEKA). Small diameter mouse DRG neurons were identified as those with a whole cell capacitance between 10–25 pF [17]. For human DRG neurons, patch clamp recordings were obtained from small-to-medium diameter neurons (<60 μm), the majority of which have previously been classified as nociceptors.
# ECS contained (in mM) 135 NaCl, 4.7 KCl, 1 CaCl2, 1 MgCl2, 10 HEPES and 10 glucose (300–310 mOsm, pH 7.4 with NaOH). ICS contained (in mM) 140 KCl, 0.5 EGTA, 5 HEPES, and 3 Mg-ATP, (pH 7.3 with KOH, 300–305 mOsm). Single action potentials were evoked from Vm -70 mV by a 20 ms suprathreshold current step (0.1 Hz).
# [5] = system: substantia gelatinosa (SG) neurons of the superficial dorsal horn; test: cells; conditions: Mus musculus, Neuron
# [6] = system: synaptosomes prepared from L4/L5 spinal cord sections; set-up: species or system mouse
# Description: A lumbosacral laminectomy was performed and a segment of lumbar spinal cord was removed into a petri dish containing ice-cold pre-oxygenated aCSF. The dura mater, ventral and dorsal roots and the pia-arachnoid membrane were removed. A small segment of the spinal cord containing only the lumbar region (L4–L5) was dissected free, weighed and placed into ice-cold homogenization buffer composition (mM) 0.32 M sucrose, 10 mM HEPES (pH 7.4, bubbled with 100% O2). Spinal cord tissue was homogenized in buffer using 20 strokes of a glass/glass hand homogenizer. The crude homogenate was diluted with 3 mL of ice-cold homogenization buffer and centrifuged at 1000 x g for 5 mins at 4°C. Synaptosomes were isolated from the supernatant by an additional centrifugation at 20,000 x g for 2 mins at 4°C. The synaptosomal pellet was resuspended in 3 mL of Krebs buffer with composition (in mM): NaCl 118, KCl 2.4, CaCl2 2.4, MgSO4 1.2, KH2PO4 1.2, NaHCO3 25, glucose 10, pH 7.4 (bubbled with 95% O2 and 5% CO2). Protein quantification was performed on the synaptosomal solution using the Bradford colorimetric protein assay and bovine serum albumin standards. Samples were diluted to obtain a final concentration of 0.1 mg mL^-1 for CGRP evaluation and 100 μL samples of the synaptosomal solution was pipetted into eppendorfs. Synaptosomes were incubated at 37°C for 10 mins in the presence of test compounds or DMSO (1 μl total volume). Synaptosomes were stimulated using Veratridine 10 μM in the presence of Thiorphan (10 μM) and incubated for a further 10 mins at 37°C. Samples were then filtered using […] filters and 100 μl of the filtrate was transferred to CGRP ELISA plate (Bertin Pharma) and assayed according to the manufactures instructions.
# [7] = system: substantia gelatinosa (SG) neurons; test: Current clamp action potentials in SG neurons of mouse spinal cord slices; type: cell-based; conditions: 30 nM
# [8] = target: mouse Nav1.7 (Mus musculus, UniProt Q62205); type: cell-based
# mouse Nav1.7, sequence (Q62205 whole entry): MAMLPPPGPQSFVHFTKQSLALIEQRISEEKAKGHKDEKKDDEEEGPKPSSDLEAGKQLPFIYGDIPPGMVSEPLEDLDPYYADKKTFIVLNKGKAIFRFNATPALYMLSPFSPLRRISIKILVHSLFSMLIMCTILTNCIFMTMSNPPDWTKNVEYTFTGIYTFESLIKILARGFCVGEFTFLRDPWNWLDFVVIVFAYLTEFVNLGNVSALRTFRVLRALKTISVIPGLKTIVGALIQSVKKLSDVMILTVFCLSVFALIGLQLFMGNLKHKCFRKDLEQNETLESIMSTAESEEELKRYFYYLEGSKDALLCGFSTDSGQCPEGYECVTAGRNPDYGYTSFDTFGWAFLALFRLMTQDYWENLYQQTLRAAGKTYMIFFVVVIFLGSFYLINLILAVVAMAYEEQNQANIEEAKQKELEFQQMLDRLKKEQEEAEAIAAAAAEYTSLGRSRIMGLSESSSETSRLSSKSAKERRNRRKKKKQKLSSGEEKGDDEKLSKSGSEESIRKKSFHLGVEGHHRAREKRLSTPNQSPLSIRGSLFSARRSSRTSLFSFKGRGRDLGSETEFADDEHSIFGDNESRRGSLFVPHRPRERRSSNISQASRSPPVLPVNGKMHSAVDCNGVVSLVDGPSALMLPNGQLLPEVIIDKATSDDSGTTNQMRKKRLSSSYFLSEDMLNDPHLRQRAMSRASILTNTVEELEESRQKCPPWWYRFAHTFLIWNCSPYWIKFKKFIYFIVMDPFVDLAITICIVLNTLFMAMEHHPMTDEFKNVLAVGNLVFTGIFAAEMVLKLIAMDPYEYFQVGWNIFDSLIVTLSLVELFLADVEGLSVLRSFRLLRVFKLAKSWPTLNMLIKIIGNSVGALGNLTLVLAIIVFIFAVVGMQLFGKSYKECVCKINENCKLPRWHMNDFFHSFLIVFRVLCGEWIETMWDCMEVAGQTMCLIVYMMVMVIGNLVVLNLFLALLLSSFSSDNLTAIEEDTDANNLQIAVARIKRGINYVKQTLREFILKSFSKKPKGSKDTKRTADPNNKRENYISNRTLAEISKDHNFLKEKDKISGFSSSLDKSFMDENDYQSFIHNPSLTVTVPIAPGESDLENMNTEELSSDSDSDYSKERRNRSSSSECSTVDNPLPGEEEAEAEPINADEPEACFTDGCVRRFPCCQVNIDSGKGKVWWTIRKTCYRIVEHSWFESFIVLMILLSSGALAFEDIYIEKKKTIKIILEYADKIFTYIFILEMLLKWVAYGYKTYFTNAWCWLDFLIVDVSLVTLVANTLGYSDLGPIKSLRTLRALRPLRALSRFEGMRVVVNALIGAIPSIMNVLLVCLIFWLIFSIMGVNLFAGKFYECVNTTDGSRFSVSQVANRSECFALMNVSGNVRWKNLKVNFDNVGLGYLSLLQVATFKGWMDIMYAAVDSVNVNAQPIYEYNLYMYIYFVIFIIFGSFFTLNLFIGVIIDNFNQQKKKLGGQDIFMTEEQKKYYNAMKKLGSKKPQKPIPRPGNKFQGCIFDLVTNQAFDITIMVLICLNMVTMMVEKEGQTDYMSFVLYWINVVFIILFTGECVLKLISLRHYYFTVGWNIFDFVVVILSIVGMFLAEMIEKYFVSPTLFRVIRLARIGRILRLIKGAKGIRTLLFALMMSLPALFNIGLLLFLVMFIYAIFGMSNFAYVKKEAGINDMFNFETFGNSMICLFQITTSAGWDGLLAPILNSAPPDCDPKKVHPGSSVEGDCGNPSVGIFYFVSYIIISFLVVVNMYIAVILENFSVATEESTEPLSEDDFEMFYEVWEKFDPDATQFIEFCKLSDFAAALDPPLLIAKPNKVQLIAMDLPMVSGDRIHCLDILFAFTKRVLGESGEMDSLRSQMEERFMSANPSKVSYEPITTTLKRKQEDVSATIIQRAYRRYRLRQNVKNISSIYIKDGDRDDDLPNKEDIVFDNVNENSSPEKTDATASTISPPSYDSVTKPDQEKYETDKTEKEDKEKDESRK
# [9] = target: mouse Nav1.1 (Mus musculus, UniProt A2APX8); type: cell-based; conditions: recombinant mouse Nav1.1
# [10] = system: mDRG neurons; test: Action potential voltage clamp in mDRG neurons; type: cell-based, mouse; conditions: 30 nM, p < 0.05
# Description: Recordings were performed as described in Blair & Bean (2002). Briefly, the internal solution contained (in mM): 140 K-Mes, 13.5 NaCl, 1.6 MgCl2, 0.09 EGTA, 9 HEPES, 0.9 glucose, 14 Tris-creatine PO4, 4 Mg-ATP, and 0.3 Tris-GTP (285–300 mOsm, pH 7.2 with KOH). The ECS was identical to that used for current clamp recordings (see above). Action potentials were recorded in current clamp mode following a 20 ms current injection from a Vm of -70 mV. The same cell was then examined under voltage-clamp (-70 mV) whereby the recorded action potential was used as the voltage command. Series resistance was compensated for by up to 80%.
smiles,measurement,setting,value
NS(=O)(=O)c1cccc2c1c([N+](=O)[O-])cc1nc(O)c(O)nc12 [NBQX],Effect on Aδ and C fiber EPSCs,"[1]; 5 μM, data not shown",completely abolished
"NC1=N[C@H](O)[C@H]2[C@H]3O[C@]4(O)O[C@@H]([C@@H](O)[C@@]2(N1)[C@@H]4O)[C@]3(O)CO [TTX, tetrodotoxin]",Effect on current remaining after A-803467,[2],abolished
same,Effect on Aδ and C fiber EPSCs,[1],completely abolished
"Nc1n[nH]cc1-c1cc(C(F)(F)F)ccc1Oc1cc(F)c(S(=O)(=O)Nc2cscn2)cc1Cl [PF-05198007, 4-(2-(3-amino-1H-pyrazol-4-yl)-4-(trifluoromethyl)phenoxy)-5-chloro-2-fluoro-N-(thiazol-4-yl)benzenesulfonamide]",Block of total TTX-S current,"[2]; 30 nM, in presence of A-803467",83.0 ± 2.7%
same,"Capsaicin flare response, AUC",[3]; 1 mg/kg oral,1967 ± 472
same,"Capsaicin flare response, AUC",[3]; 10 mg/kg oral,2265 ± 382
same,Neurons with action potential failure (complete block),"[4]; 30 nM, cells blocked/cells tested",6/13
same,Spike amplitude,[4]; control 43.0 ± 3.3 mV,37.7 ± 3.9 mV
same,Upstroke slope,[4]; control 137 ± 19 mV/ms,86 ± 11 mV/ms
same,Action potential threshold,[4]; control -27.8 ± 2.0 mV,-22.8 ± 1.6 mV
same,Action potential rheobase,"[4]; in presence of compound, control 173 ± 37 pA",239 ± 47 pA
same,Action potential rheobase after washout,"[4]; wash, control 173 ± 37 pA",176 ± 35 pA
same,inhibition at 0.03 µM,[5]; read-out: Inhibition of Aδ-fiber evoked EPSC amplitude,46.9 ± 5.4%
same,inhibition at 0.03 µM,[5]; read-out: Inhibition of C-fiber evoked EPSC amplitude,53.7 ± 10.1%
same,inhibition at 0.03 µM,[5]; read-out: Inhibition of C-fiber evoked EPSCs,87 ± 9%
same,Latency of the C-fiber mediated EPSC,"[1]; 30 nM applied to the dorsal root only, p < 0.05",delay in the latency
same,Veratridine evoked CGRP release,"[6]; 30 nM, p < 0.05",significantly reduced
same,Veratridine evoked CGRP release,"[6]; 100 nM, p < 0.05",significantly reduced
same,Effect on action potentials evoked by injection of depolarizing current,[7],no effects
same,Neurons with dorsal root evoked action potentials abolished,[7],8 out of 9
same,Slope,[8],1.1
same,Slope,[9],0.7
same,Latency of inward current,[10],increased latency
same,Peak amplitude of inward current,[10],decrease in the peak amplitude
"Cc1cccc(C)c1OCC(C)N (centres unmarked) [mexiletine, reference compound]",Veratridine evoked CGRP release,[6],significantly reduced
COc1cc(NC(=O)c2ccc(-c3ccc(Cl)cc3)o2)cc(OC)c1 [A-803467],Block of total Na+ current,"[2]; 1 μM, small diameter mDRG neurons",34.1 ± 3.0%
